Measurements taken from patent US5567590A, “Methods of diagnosing steroid-resistant inflammation due to type I or type II nuclear glucocorticoid receptor binding abnormalities” (National Jewish Center for Immunology and Respiratory, priority 1994, dated 1996).
Where two headings read alike, the source gives them in different places.

What was measured:
[1] = 7-10 day course of high dose oral Prednisone in poorly controlled asthmatics; assay type: in vivo, human; details: Post-Pn
Method: 10 poorly controlled asthmatics received a 7-10 day course of high dose oral Prednisone (20-30 mg po bid). Following prednisone treatment, PBMC's were obtained as generally described in Experiment 1 and the whole cell GR number (sites/cell) and binding affinity (Kd, nmol/l) were determined using techniques generally described in Experiment 1. In addition, spirometry and serum ECP levels were measured pre- and post-Prednisone treatment. […]

[2] = FEV1 response of SS and SR asthma patients to a 1 week course of oral prednisone; assay type: in vivo, human
Text: Patients with a diagnosis of asthma, based on American Thoracic Society criteria, were selected for evaluation. […]. Patients were excluded if they had evidence for other types of lung disease, pregnancy, suspected noncompliance with medical care, or concurrent therapy with medications that alter glucocorticoid metabolism, such as anti-convulsants or erythromycin. A complete set of pulmonary function tests with lung volume, methacholine bronchial challenge, and diffusion capacity/total lung capacity ratio were obtained if the diagnosis of asthma required confirmation.
Patients were classified as SS or SR based on their prebronchodilator morning FEV1 and their response to a course of oral prednisone. […] All SR asthma patients had glucocorticoid pharmacokinetic studies to exclude those patients with an abnormality in prednisone absorption or metabolism.

[3] = tested on: PBMC from normal donors; details: MPN 10^-6 to 10^-9 M, 72 hours
Method: PBMC were then analyzed for GR-binding parameters or capacity to proliferate in the absence and presence of methylprednisone (MPN). […] After 72 hours of incubation, proliferation was measured by [^3 H]TdR incorporation (1 μCi/well, 6.7 Ci/mmol; ICN, Irvine, Calif.) during the last 6 hours of culture. Proliferation response was measured as the percent of control incorporation of [^3 ]TdR using the formula: [formula] GR-Binding Studies
PBMC from four normal donors were preincubated in the absence and presence of IL-2+IL-4, or IL-2 alone, for 48 hours and then subsequently stimulated with PMA (0.01 μM) and I (0.05 μM) in the presence and absence of MPN ranging in concentration from 10^-6 to 10^-9 M for another 72 hours. […] Each point represents the mean±SEM.

| Compound | GR Number ([1]; PBMC, 10 poorly controlled asthmatics, Pre-Pn 8029 ± 1875, p 0.024) [sites/cell] | ECP ([1]; serum, Pre-Pn 16.1 ± 1.9, p 0.045) [µg/L] | FEV1 /FVC Ratio ([1]; Pre-Pn 0.60 ± 0.02, p 0.014) | FEV1 ([1]; Pre-Pn 63.8 ± 3.2%, p 0.008) [% predicted] | FEV1 after steroid burst ([2]; SR asthma patients (n 17), FEV1 before BD 58 % predicted) | FEV1 after steroid burst ([2]; SS asthma patients (n 12), FEV1 before BD 47 % predicted) | effect of MPN on PMA/I-induced proliferation ([3]; PBMC preincubated 48 hours in culture medium alone) | effect of MPN on PMA/I-induced proliferation ([3]; PBMC preincubated 48 hours with IL-2+IL-4, compared with medium alone) |
| --- | --- | --- | --- | --- | --- | --- | --- | --- |
| C[C@]12C=CC(=O)C=C1CC[C@@H]1[C@@H]2C(=O)C[C@@]2(C)[C@H]1CC[C@]2(O)C(=O)CO [Prednisone] | 3575 ± 1094 | 10.8 ± 1.2 | 0.70 ± 0.01 | 82.6 ± 4.4 | 57 | 82 |  |  |
| methylprednisone [MPN] |  |  |  |  |  |  | significant dose-dependent inhibition of proliferation | significantly decreased inhibitory effect |
